Target: T1, 4,6-αGT-ML4 (Limosilactobacillus reuteri, UniProt Q5SBN1)
T1 construct: full-length 180 kDa
Assay: 1H NMR / TLC / HPAEC of product mixture
Type: biochemical
Settings: sodium acetate 25 mM pH 4.7, 1 mM CaCl2, 37 °C, 40 h, 25 μg/ml enzyme

T1 sequence (Q5SBN1 entry or part of it): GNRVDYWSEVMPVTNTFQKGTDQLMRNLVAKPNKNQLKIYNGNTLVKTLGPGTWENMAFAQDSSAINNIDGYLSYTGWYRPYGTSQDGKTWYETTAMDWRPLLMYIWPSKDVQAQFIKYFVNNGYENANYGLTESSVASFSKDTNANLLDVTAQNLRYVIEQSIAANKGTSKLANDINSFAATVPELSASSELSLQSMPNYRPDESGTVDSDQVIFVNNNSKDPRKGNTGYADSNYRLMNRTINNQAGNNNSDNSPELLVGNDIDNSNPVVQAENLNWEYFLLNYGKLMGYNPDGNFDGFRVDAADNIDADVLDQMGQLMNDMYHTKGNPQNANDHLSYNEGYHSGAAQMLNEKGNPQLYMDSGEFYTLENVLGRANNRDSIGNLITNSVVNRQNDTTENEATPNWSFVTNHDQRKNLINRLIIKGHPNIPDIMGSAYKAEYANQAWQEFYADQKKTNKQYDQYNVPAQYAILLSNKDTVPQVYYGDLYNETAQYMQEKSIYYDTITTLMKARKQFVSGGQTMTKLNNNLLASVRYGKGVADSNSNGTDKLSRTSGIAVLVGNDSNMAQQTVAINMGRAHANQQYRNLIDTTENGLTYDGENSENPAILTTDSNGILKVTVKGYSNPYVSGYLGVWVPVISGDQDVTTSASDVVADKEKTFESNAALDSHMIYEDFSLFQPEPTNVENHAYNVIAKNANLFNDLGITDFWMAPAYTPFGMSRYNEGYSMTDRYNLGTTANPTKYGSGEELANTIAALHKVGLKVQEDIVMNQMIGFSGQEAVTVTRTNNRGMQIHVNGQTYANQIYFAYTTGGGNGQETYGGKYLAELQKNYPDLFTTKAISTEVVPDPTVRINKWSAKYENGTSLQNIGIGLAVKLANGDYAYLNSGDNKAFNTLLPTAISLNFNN

OC[C@H]1O[C@H](O[C@H]2[C@H](O)[C@@H](O)[C@@H](O[C@H]3[C@H](O)[C@@H](O)[C@@H](O[C@H]4[C@H](O)[C@@H](O)[C@@H](O[C@H]5[C@H](O)[C@@H](O)[C@@H](O[C@H]6[C@H](O)[C@@H](O)C(O)O[C@@H]6CO)O[C@@H]5CO)O[C@@H]4CO)O[C@@H]3CO)O[C@@H]2CO)[C@H](O)[C@@H](O)[C@@H]1O (stereo partly shown) [DP6, maltohexaose] was tested, and the “1H NMR / TLC / HPAEC of product mixture” value was “generated from maltohexaose, showing a linkage ratio”.

— paper PMC3536977, “4,6-α-Glucanotransferase activity occurs more widespread in Lactobacillus strains and constitutes a separate GH70 subfamily” (Applied Microbiology and Biotechnology, 2012)
